Columns and labels:
hypusinated eIF5A = test: Western blot hypusine versus total eIF5A; format: cell-based, mouse, human
Procedure: The inventors sought to determine if the decrease in cell viability is due to the inhibition of post translational modification of eIF5A. To test this, all cell lines were treated with GC7 at 100 μM for 48 hours—which were the time point and concentration at which a decrease in cell viability was seen (FIG. 2B). The inventors then collected, performed a western blot and immunoblotted for hypusine, total eIF5A and β-actin as a loading control (FIG. 3A). […] To test if this effect is dose-dependent, 4T1, 67NR and MCF10CA1a cells were treated with various concentrations of GC7 ranging from 0.1 μM to 100 μM. Protein lysates were then collected after 48 hours of treatment and performed a western blot. […] To validate this in breast cancer cells, the inventors immunoblotted for PEAK1 as well as E-cadherin, hypusine, total eIF5A and β-actin as a loading control (FIG. 3B). […] The inventors next looked at cell viability at lower concentrations of GC7, such as 1 μM and 10 μM, where a decrease in hypusinated eIF5A is still achieved but the decrease in cell viability is not as great in lower concentrations that do still target hypusinated eIF5A (FIG. 3C).
Cell lines were plated in a 6 well plate at 1e5 cells/mL and left to attach overnight. […] Protein concentrations were determined using Bradford Assay. […] Band intensity graphs were quantified using Fiji software after image thresholding.

[1] = system: eIF5A localization in MCF10CA1h cells; test: Immunofluorescence, subcellular localization of total eIF5A; format: cell-based, human; details: 1 and 10 μM GC7, 48 hours
Procedure: (§1) Thus, we interrogated the subcellular localization of eIF5A protein using immunofluorescent staining under control as well as 1 and 10 μM GC7 treatment conditions in triple negative breast cancer lines (FIGS. 12A and 12B).
(§2) Cells were plated at 1e4 cells/mL at 4 mL in a 6-well plate containing a sterile glass coverslip and allowed to attach overnight. Cells were then treated with appropriate inhibitors at indicated concentrations and time-points. Cells were first fixed using 4% paraformaldehyde for 20 minutes. Cells were then subjected to Triton-X to permeabilize the cells before treatment with specific antibodies in 2% BSA in PBS. After primary antibody incubation for 90 minutes, cells were washed with PBS three times before incubating with secondary antibodies in 2% BSA in PBS for 1 hour. Cells were again washed with PBS three times before set overnight staining with DAPI. Cells were then imaged using a Leica DMI6000 inverted microscope at 100× magnification.

[2] = system: eIF5A localization in MDA-MB-468 cells; test: as above; format: cell-based, human; details: 1 and 10 μM GC7, 48 hours
Procedure: as §1, §2

Structure (SMILES): N=C(N)NCCCCCCCN.O=S(=O)(O)O [GC7, N1-Guanyl-1,7-diaminoheptane]
- decrease in hypusinated eIF5A protein activity (hypusinated eIF5A; 100 μM GC7, 48 hours, 4T1, 67NR, MCF10AT1k, MCF10CA1h and MCF10CA1a): largest decrease in hypusinated eIF5A protein activity
- hypusinated eIF5A levels (band intensity ratio to total eIF5A) (hypusinated eIF5A; GC7 0.1 μM to 100 μM, 48 hours, 4T1, 67NR and MCF10CA1a): consistently decreased
- nuclear depletion of eIF5A [1]: Nuclear depletion of eIF5A was observed
- nuclear depletion of eIF5A [2]: this change was significant only in the case of MDA-MB-468 cells
